Where two headings read alike, the source gives them in different places.
Key:
[1] = biological target: T1, PKC isoenzyme δ (Homo sapiens, UniProt Q05655); assay: Protein kinase C inhibition assay, PKC isoenzyme δ; format: biochemical
T1 construct: made in house; host or cells: baculovirus-insect cell expression system
Procedure: (§1) A protein kinase C (PKC) assay is designed to duplicate the in vivo conditions required for protein kinase C function. Therefore, pH, salt and cofactor concentrations are similar to physiologic levels. Either lysine rich histone H1 (H1) or Myelin basic protein (Mbp) are used in the assay as the phosphorylation acceptor-protein because they are readily available and serve as good substrates for protein kinase C. Enzyme was prepared from baculovirus-insect cell expression systems.
(§2) In the screening assay, phosphatidylserine (PS) and DAG were co-sonicated to form unilamellar and multilamellar vesicles. The concentration of lipids in the assay were suboptimal to maximize the detection potential of the assay for inhibitors or activators. Potential effector compounds were added to the assay in dimethylsulfoxide at four concentrations to give final inhibitor concentrations of 1, 10, 50, and 150 μM, respectively.
(§3) The assay was started with the addition of enzyme and stopped after 10 min by the addition of 25% trichloroacetic acid (TCA) and 1.0 mg/ml bovine serum albumin (BSA). The radioactive histone product was retained and washed on glass fiber filters that allow the unreacted P-ATP to pass through. The amount of phosphorylation was determined by measuring radioactivity with a scintillation counter. Controls were included in every assay to measure background activity in the absence of enzyme, activity in the absence of lipids, and the maximum enzyme activity with saturating levels of the activator lipids.
(§4) Results of the protein kinase C assay are shown in Table 4 in columns labeled α, βII, γ, δ, ε, and .zeta. which represent various PKC isoenzymes. Results are show as IC50, which is the concentration of test compound needed to inhibit 50% of the protein kinase C activity in controls.

[2] = biological target: T2, PKC isoenzyme βII (Homo sapiens, UniProt P05771); assay: Protein kinase C inhibition assay, PKC isoenzyme βII; format: biochemical
T2 construct: made in house; host or cells: baculovirus-insect cell expression system
Procedure: as §1, §2, §3, §4

[3] = biological target: T3, PKC isoenzyme γ (Homo sapiens, UniProt P05129); assay: Protein kinase C inhibition assay, PKC isoenzyme γ; format: biochemical
T3 construct: made in house; host or cells: baculovirus-insect cell expression system
Procedure: as §1, §2, §3, §4

[4] = biological target: T4, PKC isoenzyme α (Homo sapiens, UniProt P17252); assay: Protein kinase C inhibition assay, PKC isoenzyme α; format: biochemical
T4 construct: made in house; host or cells: baculovirus-insect cell expression system
Procedure: as §1, §2, §3, §4

[5] = test system: MCF-7 human breast tumor cell line; assay: Human Tumor Cell Growth Inhibition (3H-thymidine incorporation); format: cell-based
Procedure: MCF-7 a human breast tumor cell line was obtained from the National Cancer Institute, Frederick, Md. Tumor cells were trypsinized with 0.05% trypsin obtained from GIBCO (Grand Island Biological Co. Laboratories, Grand Island, N.Y.), counted with a hemacytometer and seeded at a concentration of 7,500 cells/well in a 96 well microtiter plate and allowed to attach to the surface overnight. To determine a concentration response, test agents were serially diluted an […] added at 2× final concentration to quadruplicate cultures to bring the total volume of each well to […]. The microtiter plate was then incubated at 37° C., 5% CO2 for 24 hrs with ^3 H-thymidine added at a concentration of 0.5 mCi/well in […] of 0.05% trypsin (GIBCO) was added to each well. Cells were checked microscopically to determine detachment from surfaces, and plates were harvested with a cell harvester (PHD, Cambridge Technology, Inc.). Filter paper corresponding to wells were placed in scintillation vials and counted to determine the amount ^3 H-thymidine incorporated by the cells. Counts per minute (CPM) of quadruplicate cultures were averaged and a percent of control calculated for each test agent concentration by the following formula: [formula]
The IC50 or concentration necessary to inhibit the proliferation of cells by 50% compared to control, of each test agent was determined by plotting % control vs log concentration for each dilution and then linear forecasting the 50% control value onto the X axis on a Quattro Pro computer program. Only regression values with a correlation coefficient greater then 0.9 were considered acceptable.

[6] = Homo sapiens, MCF7, MCF-7, 24 hrs

T2 sequence (P05771 1-673 isoform P05771-2): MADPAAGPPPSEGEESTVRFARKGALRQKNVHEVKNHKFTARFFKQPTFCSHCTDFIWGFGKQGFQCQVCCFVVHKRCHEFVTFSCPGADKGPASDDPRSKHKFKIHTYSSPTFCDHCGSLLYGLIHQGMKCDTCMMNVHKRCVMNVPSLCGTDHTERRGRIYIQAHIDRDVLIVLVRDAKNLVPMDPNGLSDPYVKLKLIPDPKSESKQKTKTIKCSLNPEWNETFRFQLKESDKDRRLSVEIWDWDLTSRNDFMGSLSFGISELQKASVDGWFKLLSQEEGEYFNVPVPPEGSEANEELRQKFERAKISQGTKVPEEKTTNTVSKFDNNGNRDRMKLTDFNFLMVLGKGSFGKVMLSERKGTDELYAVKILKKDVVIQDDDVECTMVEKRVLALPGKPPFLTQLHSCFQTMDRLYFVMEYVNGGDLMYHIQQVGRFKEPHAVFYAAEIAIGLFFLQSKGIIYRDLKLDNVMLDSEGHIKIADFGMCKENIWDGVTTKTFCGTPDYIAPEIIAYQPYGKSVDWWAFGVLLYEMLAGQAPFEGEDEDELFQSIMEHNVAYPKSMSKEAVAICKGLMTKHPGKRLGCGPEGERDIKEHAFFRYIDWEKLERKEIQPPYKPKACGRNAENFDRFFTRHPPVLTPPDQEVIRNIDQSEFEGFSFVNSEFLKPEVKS
T1 sequence (Q05655 whole entry): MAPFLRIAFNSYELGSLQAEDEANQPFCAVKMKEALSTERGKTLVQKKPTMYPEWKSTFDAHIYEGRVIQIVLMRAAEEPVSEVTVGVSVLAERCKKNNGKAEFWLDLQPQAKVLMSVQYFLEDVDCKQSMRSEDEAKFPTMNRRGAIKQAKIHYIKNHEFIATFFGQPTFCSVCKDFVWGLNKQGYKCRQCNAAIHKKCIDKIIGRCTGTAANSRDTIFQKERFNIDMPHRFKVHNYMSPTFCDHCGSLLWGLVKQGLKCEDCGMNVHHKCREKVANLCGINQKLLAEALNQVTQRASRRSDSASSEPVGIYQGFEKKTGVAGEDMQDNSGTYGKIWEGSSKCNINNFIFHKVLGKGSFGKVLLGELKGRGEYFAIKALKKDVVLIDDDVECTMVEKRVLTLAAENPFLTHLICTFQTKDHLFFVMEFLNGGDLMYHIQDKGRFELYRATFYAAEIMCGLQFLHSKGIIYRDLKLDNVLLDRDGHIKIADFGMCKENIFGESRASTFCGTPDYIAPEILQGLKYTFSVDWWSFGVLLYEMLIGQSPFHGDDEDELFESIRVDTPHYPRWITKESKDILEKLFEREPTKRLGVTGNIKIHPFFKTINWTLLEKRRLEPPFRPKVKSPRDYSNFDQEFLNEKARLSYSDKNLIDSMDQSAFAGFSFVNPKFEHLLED

Structure (SMILES) | IC50 ([1]; read-out: IC50 PKC δ) [µM] | IC50 ([2]; read-out: IC50 PKC βII) [µM] | IC50 ([3]; read-out: IC50 PKC γ) [µM] | IC50 ([4]; read-out: IC50 PKC α) [µM] | IC50 ([5]; MCF-7, 24 hrs) [µM] | IC50 [5, 6] [µM] | IC50 ([1]; IC50 PKC δ) [µM] | IC50 ([2]; IC50 PKC βII) [µM] | IC50 ([3]; IC50 PKC γ) [µM] | IC50 ([4]; IC50 PKC α) [µM]
Cc1nnc(NS(=O)(=O)c2ccc(N=C3C=C(Nc4ccc(S(=O)(=O)Nc5nnc(C)s5)cc4)C(=O)c4ccccc43)cc2)s1 [Compound 3e] | 43 | 14 | 22 | 17 |  |  |  |  |  | 
O=C1C(Nc2ccc(S(=O)(=O)Nc3ccccn3)cc2)=CC(=Nc2ccc(S(=O)(=O)Nc3ccccn3)cc2)c2ccccc21 [Compound 6i] | 120 | 47 | 10 | 14 | 20 |  |  |  |  | 
O=C1C(Nc2ccc(S(=O)(=O)Nc3ccc(Cl)nn3)cc2)=CC(=Nc2ccc(S(=O)(=O)Nc3ccc(Cl)nn3)cc2)c2ccccc21 [Compound 3l] | 78 | 24 | 7 | 27 |  |  |  |  |  | 
Cc1cc(C)nc(NC(=O)c2ccc(N=C3C=C(Nc4ccc(C(=O)Nc5nc(C)cc(C)n5)cc4)C(=O)c4ccccc43)cc2)n1 [Compound 3ai] | > 150 | 101 | 9 | 56 |  | 0.03 |  |  |  | 
Cc1cc(C)nc(NS(=O)(=O)c2ccc(N=C3C=C(Nc4ccc(S(=O)(=O)Nc5nc(C)cc(C)n5)cc4)C(=O)c4ccccc43)cc2)n1 [Compound 3c] | 72 | 7 | 21 | 17 | 7.03 |  |  |  |  | 
O=C1C(Nc2ccc(S(=O)(=O)Nc3cnc4ccccc4n3)cc2)=CC(=Nc2ccc(S(=O)(=O)Nc3cnc4ccccc4n3)cc2)c2ccccc21 [Compound 3m] | 122 | 22 | 14 | 8 |  | 17.9 |  |  |  | 
Cc1ccnc(NS(=O)(=O)c2ccc(N=C3C=C(Nc4ccc(S(=O)(=O)Nc5nccc(C)n5)cc4)C(=O)c4ccccc43)cc2)n1 [Compound 6f] | 43 |  | 18 | 24 | 17.7 |  |  |  |  | 
COc1cc(NS(=O)(=O)c2ccc(N=C3C=C(Nc4ccc(S(=O)(=O)Nc5cc(OC)nc(OC)n5)cc4)C(=O)c4ccccc43)cc2)nc(OC)n1 [Compound 3g] | 40 | 25 | 14 | 32 |  | 16.5 |  |  |  | 
O=C1C(Nc2ccc(S(=O)(=O)Nc3cnc4ccccc4n3)cc2)=CC(=Nc2ccc(S(=O)(=O)Nc3cnc4ccccc4n3)cc2)c2ccccc21 [Compound 6m] | 37 | 23 | 10 | 9 | 19 |  |  |  |  | 
O=C1C(Nc2ccc(S(=O)(=O)Nc3ccccn3)cc2)=CC(=Nc2ccc(S(=O)(=O)Nc3ccccn3)cc2)c2ccccc21 [Compound 3i] | 37 | 26 | 15 | 23 |  | 13.8 |  |  |  | 
Cc1cc(C)nc(NC(=O)c2ccc(N=C3C=C(Nc4ccc(C(=O)Nc5cc(C)cc(C)n5)cc4)C(=O)c4ccccc43)cc2)c1 [Compound 3ah] | > 150 | 145 | 70 | 136 |  | 1.4 |  |  |  | 
Cc1cc(NS(=O)(=O)c2ccc(N=C3C=C(Nc4ccc(S(=O)(=O)Nc5cc(C)on5)cc4)C(=O)c4ccccc43)cc2)no1 [Compound 6a] | 34 | 24 |  |  |  |  |  |  |  | 
COc1cc(NS(=O)(=O)c2ccc(N=C3C=C(Nc4ccc(S(=O)(=O)Nc5cc(OC)cc(OC)c5)cc4)C(=O)c4ccccc43)cc2)cc(OC)c1 [Compound 6af] |  | > 150 | 60 | 113 | 1.2 |  |  |  |  | 
COc1cnc(NS(=O)(=O)c2ccc(N=C3C=C(Nc4ccc(S(=O)(=O)Nc5ncc(OC)cn5)cc4)C(=O)c4ccccc43)cc2)nc1 [Compound 6h] | > 150 | 97 | 41 | 108 | 14.9 |  |  |  |  | 
O=C1C(Nc2ccc(S(=O)(=O)NCc3ccccn3)cc2)=CC(=Nc2ccc(S(=O)(=O)NCc3ccccn3)cc2)c2ccccc21 [Compound 3n] | > 150 | 141 | 24 | 75 |  | 1.02 |  |  |  | 
COc1cc(NS(=O)(=O)c2ccc(N=C3C=C(Nc4ccc(S(=O)(=O)Nc5cc(OC)cc(OC)c5)cc4)C(=O)c4ccccc43)cc2)cc(OC)c1 [Compound 3af] | > 150 | 143 | 40 | 102 |  | 0.83 |  |  |  | 
Cc1noc(NS(=O)(=O)c2ccc(N=C3C=C(Nc4ccc(S(=O)(=O)Nc5onc(C)c5C)cc4)C(=O)c4ccccc43)cc2)c1C [Compound 3b] | 31 | 29 | 25 | 30 |  |  |  |  |  | 
O=C1C(Nc2ccc(S(=O)(=O)NCc3ccccn3)cc2)=CC(=Nc2ccc(S(=O)(=O)NCc3ccccn3)cc2)c2ccccc21 [Compound 6n] |  | > 150 | 44 | 134 | 0.75 |  |  |  |  | 
COc1cc(NS(=O)(=O)c2ccc(N=C3C=C(Nc4ccc(S(=O)(=O)Nc5cc(OC)nc(OC)n5)cc4)C(=O)c4ccccc43)cc2)nc(OC)n1 [Compound 6g] | > 150 | 33 | 20 | 61 | 21 |  |  |  |  | 
Cc1cc(NS(=O)(=O)c2ccc(N=C3C=C(Nc4ccc(S(=O)(=O)Nc5cc(C)nc(C)n5)cc4)C(=O)c4ccccc43)cc2)nc(C)n1 [Compound 3d] | 95 | 31 | 36 | 37 |  | 17.2 |  |  |  | 
Cc1cc(C)nc(NS(=O)(=O)c2cccc(N=C3C=C(Nc4cccc(S(=O)(=O)Nc5cc(C)cc(C)n5)c4)C(=O)c4ccccc43)c2)c1 [Compound 3ae] | 85 | 52 | 16 | 31 |  | 4.8 |  |  |  | 
O=C1C(Nc2ccc(S(=O)(=O)Nc3ccc(Cl)nn3)cc2)=CC(=Nc2ccc(S(=O)(=O)Nc3ccc(Cl)nn3)cc2)c2ccccc21 [Compound 6l] | 50 | 29 | 9 | 44 |  |  |  |  |  | 
Cc1cc(C)nc(NS(=O)(=O)c2cc(N=C3C=C(Nc4ccc(C)c(S(=O)(=O)Nc5cc(C)cc(C)n5)c4)C(=O)c4ccccc43)ccc2C)c1 [Compound 3ag] | 30 | 17 | 20 | 7 |  | 2.4 |  |  |  | 
Cc1cc(C)nc(NS(=O)(=O)c2ccc(N=C3C=C(Nc4ccc(S(=O)(=O)Nc5nc(C)cc(C)n5)cc4)C(=O)c4ccccc43)cc2)n1 [Compound 6c] | 10 | 14 | 7 | 7 | 15.5 |  |  |  |  | 
O=C1C(Nc2ccc(S(=O)(=O)NCCNc3ccc([N+](=O)[O-])cn3)cc2)=CC(=Nc2ccc(S(=O)(=O)NCCNc3ccc([N+](=O)[O-])cn3)cc2)c2ccccc21 [Compound 3ac] |  |  |  |  |  | 0.16 | 147 | 89 | 22 | 85
Cc1ccnc(NS(=O)(=O)c2ccc(N=C3C=C(Nc4ccc(S(=O)(=O)Nc5nccc(C)n5)cc4)C(=O)c4ccccc43)cc2)n1 [Compound 3f] | 86 | 23 | 29 | 28 |  | 16.6 |  |  |  | 
COc1ccc(NS(=O)(=O)c2ccc(N=C3C=C(Nc4ccc(S(=O)(=O)Nc5ccc(OC)nn5)cc4)C(=O)c4ccccc43)cc2)nn1 [Compound 6j] | 113 | 47 | 30 | 106 | 10.9 |  |  |  |  | 
Cc1nnc(NS(=O)(=O)c2ccc(N=C3C=C(Nc4ccc(S(=O)(=O)Nc5nnc(C)s5)cc4)C(=O)c4ccccc43)cc2)s1 [Compound 6e] | 35 | 24 | 12 | 109 |  |  |  |  |  | 
